Here are results for one compound from publication PMC6631596, “Analgesic and Anti-Inflammatory Activities of Quercetin-3-methoxy-4′-glucosyl-7-glucoside Isolated from Indian Medicinal Plant Melothria heterophylla” (Medicines, 2019).

For assay [1], the target named is T1, COX-1 (Ovis aries, UniProt P05979).
T1 construct: gene PTGS1; ovine COX-1
T1 sequence (P05979 25-600): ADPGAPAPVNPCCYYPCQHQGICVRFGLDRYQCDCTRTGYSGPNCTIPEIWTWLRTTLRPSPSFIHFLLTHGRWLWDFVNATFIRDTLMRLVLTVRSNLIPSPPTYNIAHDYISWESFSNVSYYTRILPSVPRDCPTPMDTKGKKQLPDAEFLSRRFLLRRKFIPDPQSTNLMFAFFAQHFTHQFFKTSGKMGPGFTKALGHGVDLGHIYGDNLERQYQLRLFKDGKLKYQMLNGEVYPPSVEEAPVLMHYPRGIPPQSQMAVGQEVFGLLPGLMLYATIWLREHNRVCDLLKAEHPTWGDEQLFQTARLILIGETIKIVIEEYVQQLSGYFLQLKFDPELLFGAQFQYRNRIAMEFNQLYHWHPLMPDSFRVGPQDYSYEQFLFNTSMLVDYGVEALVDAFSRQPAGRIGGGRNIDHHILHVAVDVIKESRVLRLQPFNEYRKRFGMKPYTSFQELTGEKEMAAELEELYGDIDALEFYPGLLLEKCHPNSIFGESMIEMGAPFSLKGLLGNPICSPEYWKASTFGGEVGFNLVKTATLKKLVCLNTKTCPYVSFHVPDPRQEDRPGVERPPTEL
Kind of assay: Cayman COX inhibitor screening assay (prostaglandin ELISA). The format is biochemical.

The target in assay [2] is T2, COX-2 (Homo sapiens, UniProt P35354).
T2 construct: gene PTGS2; human recombinant COX-2
T2 sequence (P35354 18-604): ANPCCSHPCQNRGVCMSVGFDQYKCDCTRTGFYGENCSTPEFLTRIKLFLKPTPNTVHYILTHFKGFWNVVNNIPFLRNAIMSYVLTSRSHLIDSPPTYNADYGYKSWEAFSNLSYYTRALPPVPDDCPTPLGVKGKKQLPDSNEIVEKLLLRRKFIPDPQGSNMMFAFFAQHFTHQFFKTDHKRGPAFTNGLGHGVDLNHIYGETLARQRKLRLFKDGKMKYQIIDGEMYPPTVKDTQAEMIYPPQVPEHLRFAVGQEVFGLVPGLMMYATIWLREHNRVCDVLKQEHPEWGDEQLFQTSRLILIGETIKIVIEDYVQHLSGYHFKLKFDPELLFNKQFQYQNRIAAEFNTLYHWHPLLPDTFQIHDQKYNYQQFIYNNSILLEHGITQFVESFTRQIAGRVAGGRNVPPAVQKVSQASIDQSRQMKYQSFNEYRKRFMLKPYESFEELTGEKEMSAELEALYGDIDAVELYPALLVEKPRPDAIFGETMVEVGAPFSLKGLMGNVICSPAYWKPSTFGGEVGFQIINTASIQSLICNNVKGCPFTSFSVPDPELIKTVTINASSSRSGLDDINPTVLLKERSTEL
Described as above. It counts as biochemical.

Turning to `COc1c(-c2ccc(O[C@@H]3O[C@H](CO)[C@@H](O)[C@H](O)[C@H]3O)c(O)c2)oc2cc(O[C@@H]3O[C@H](CO)[C@@H](O)[C@H](O)[C@H]3O)cc(O)c2c1=O` [quercetin-3-methoxy-4′-glucosyl-7-glucoside], the figures for the IC50 in assay [1] and in assay [2] were 4.31 µM and 3.11 µM, respectively.
